Laboratory results from ChEMBL document CHEMBL3885881, “DrugMatrix”.

Organism: Rattus norvegicus
Assay: DrugMatrix - Regimen: Daily Repeat
Format: toxicity, organism-based, Sprague-Dawley
Set-up: regimen Daily Repeat, gender Male, age 6-8 weeks
Conditions: in vivo, po, route oral GAVAGE, vehicle .5 % CMC; for ABSOLUTE BASOPHIL / ABSOLUTE EOSINOPHIL / ABSOLUTE LYMPHOCYTE / ABSOLUTE SEGMENTED NEUTROPHIL / BASOPHIL / EOSINOPHIL / ERYTHROCYTE COUNT / HEMATOCRIT / HEMOGLOBIN / LEUKOCYTE COUNT / LYMPHOCYTE / MEAN CORPUSCULAR HEMOGLOBIN / MEAN CORPUSCULAR HEMOGLOBIN CONCENTRATION / MEAN CORPUSCULAR VOLUME / MONOCYTE / NEUTROPHIL / NUCLEATED RED BLOOD CELLS / PLATELET COUNT: tissue Blood; for ALANINE AMINOTRANSFERASE / ASPARTATE AMINOTRANSFERASE / BLOOD UREA NITROGEN / CARBON DIOXIDE / CHLORIDE / CHOLESTEROL / CREATINE PHOSPHOKINASE / CREATININE / GLUCOSE / LACTATE DEHYDROGENASE / LIPASE / PHOSPHORUS / POTASSIUM / SODIUM / TOTAL BILIRUBIN / TOTAL PROTEIN / URIC ACID: tissue Plasma
[1] = 30 mg/kg, 72 h, dose level Low, time 3 day
[2] = 30 mg/kg, 120 h, dose level Low, time 5 day
[3] = 490 mg/kg, 72 h, dose level High, time 3 day
[4] = 490 mg/kg, 120 h, dose level High, time 5 day

Compound: NC(=O)N1c2ccccc2C=Cc2ccccc21 [CARBAMAZEPINE]
- ABSOLUTE BASOPHIL [1]: 0 CELLS/uL
- ABSOLUTE EOSINOPHIL [1]: 182 CELLS/uL
- ABSOLUTE LYMPHOCYTE [1]: 15035.33 CELLS/uL
- ABSOLUTE SEGMENTED NEUTROPHIL [1]: 1745.67 CELLS/uL
- BASOPHIL [1]: 0%
- EOSINOPHIL [1]: 1%
- ERYTHROCYTE COUNT [1]: 5.25 x10E6/uL
- HEMATOCRIT [1]: 33.47%
- HEMOGLOBIN [1]: 12.6 G/DL
- LEUKOCYTE COUNT [1]: 17.3 x10E3/uL
- LYMPHOCYTE [1]: 86.67%
- MEAN CORPUSCULAR HEMOGLOBIN [1]: 24.03 pg
- MEAN CORPUSCULAR HEMOGLOBIN CONCENTRATION [1]: 37.67 G/DL
- MEAN CORPUSCULAR VOLUME [1]: 63.8 fL
- MONOCYTE [1]: 2%
- NEUTROPHIL [1]: 10.33%
- NUCLEATED RED BLOOD CELLS [1]: 0 /100WBC
- PLATELET COUNT [1]: 1486.67 x10E3/uL
- ALANINE AMINOTRANSFERASE [1]: 52 u/L
- ASPARTATE AMINOTRANSFERASE [1]: 78.33 u/L
- BLOOD UREA NITROGEN [1]: 16.33 mg/dL
- CARBON DIOXIDE [1]: 25.67 mmol/L
- CHLORIDE [1]: 101.67 MEQ/L
- CHOLESTEROL [1]: 69.67 mg/dL
- CREATINE PHOSPHOKINASE [1]: 157.33 u/L
- CREATININE [1]: 0.2 mg/dL
- GLUCOSE [1]: 143.33 mg/dL
- LACTATE DEHYDROGENASE [1]: 208 u/L
- LIPASE [1]: 9 u/L
- PHOSPHORUS [1]: 11.33 mg/dL
- POTASSIUM [1]: 6.9 MEQ/L
- SODIUM [1]: 145 MEQ/L
- TOTAL BILIRUBIN [1]: 0.2 mg/dL
- TOTAL PROTEIN [1]: 5.53 G/DL
- URIC ACID [1]: 1.57 mg/dL
- ABSOLUTE BASOPHIL [2]: 0 CELLS/uL
- ABSOLUTE EOSINOPHIL [2]: 0 CELLS/uL
- ABSOLUTE LYMPHOCYTE [2]: 16159 CELLS/uL
- ABSOLUTE SEGMENTED NEUTROPHIL [2]: 1742.33 CELLS/uL
- BASOPHIL [2]: 0%
- EOSINOPHIL [2]: 0%
- ERYTHROCYTE COUNT [2]: 5.72 x10E6/uL
- HEMATOCRIT [2]: 35.57%
- HEMOGLOBIN [2]: 13.07 G/DL
- LEUKOCYTE COUNT [2]: 18.27 x10E3/uL
- LYMPHOCYTE [2]: 88.33%
- MEAN CORPUSCULAR HEMOGLOBIN [2]: 22.87 pg
- MEAN CORPUSCULAR HEMOGLOBIN CONCENTRATION [2]: 36.73 G/DL
- MEAN CORPUSCULAR VOLUME [2]: 62.2 fL
- MONOCYTE [2]: 2%
- NEUTROPHIL [2]: 9.67%
- NUCLEATED RED BLOOD CELLS [2]: 0 /100WBC
- PLATELET COUNT [2]: 1400 x10E3/uL
- ALANINE AMINOTRANSFERASE [2]: 40 u/L
- ASPARTATE AMINOTRANSFERASE [2]: 84 u/L
- BLOOD UREA NITROGEN [2]: 19.67 mg/dL
- CARBON DIOXIDE [2]: 25.33 mmol/L
- CHLORIDE [2]: 106.67 MEQ/L
- CHOLESTEROL [2]: 60 mg/dL
- CREATINE PHOSPHOKINASE [2]: 371 u/L
- CREATININE [2]: 0.18 mg/dL
- GLUCOSE [2]: 138.67 mg/dL
- LACTATE DEHYDROGENASE [2]: 600.67 u/L
- LIPASE [2]: 8.67 u/L
- PHOSPHORUS [2]: 11.47 mg/dL
- POTASSIUM [2]: 6.31 MEQ/L
- SODIUM [2]: 144.97 MEQ/L
- TOTAL BILIRUBIN [2]: 0.17 mg/dL
- TOTAL PROTEIN [2]: 6.17 G/DL
- URIC ACID [2]: 1.2 mg/dL
- ABSOLUTE BASOPHIL [3]: 0 CELLS/uL
- ABSOLUTE EOSINOPHIL [3]: 197 CELLS/uL
- ABSOLUTE LYMPHOCYTE [3]: 13021 CELLS/uL
- ABSOLUTE SEGMENTED NEUTROPHIL [3]: 740.67 CELLS/uL
- BASOPHIL [3]: 0%
- EOSINOPHIL [3]: 1%
- ERYTHROCYTE COUNT [3]: 6.01 x10E6/uL
- HEMATOCRIT [3]: 37.5%
- HEMOGLOBIN [3]: 14.23 G/DL
- LEUKOCYTE COUNT [3]: 14.27 x10E3/uL
- LYMPHOCYTE [3]: 91.33%
- MEAN CORPUSCULAR HEMOGLOBIN [3]: 23.77 pg
- MEAN CORPUSCULAR HEMOGLOBIN CONCENTRATION [3]: 37.97 G/DL
- MEAN CORPUSCULAR VOLUME [3]: 62.57 fL
- MONOCYTE [3]: 2%
- NEUTROPHIL [3]: 5.67%
- NUCLEATED RED BLOOD CELLS [3]: 0 /100WBC
- PLATELET COUNT [3]: 1370 x10E3/uL
- ALANINE AMINOTRANSFERASE [3]: 67 u/L
- ASPARTATE AMINOTRANSFERASE [3]: 98.33 u/L
- BLOOD UREA NITROGEN [3]: 20.33 mg/dL
- CARBON DIOXIDE [3]: 23.67 mmol/L
- CHLORIDE [3]: 100.67 MEQ/L
- CHOLESTEROL [3]: 62.67 mg/dL
- CREATINE PHOSPHOKINASE [3]: 423.33 u/L
- CREATININE [3]: 0.18 mg/dL
- GLUCOSE [3]: 127 mg/dL
- LACTATE DEHYDROGENASE [3]: 617.67 u/L
- LIPASE [3]: 9.33 u/L
- PHOSPHORUS [3]: 11.33 mg/dL
- POTASSIUM [3]: 6.92 MEQ/L
- SODIUM [3]: 141.13 MEQ/L
- TOTAL BILIRUBIN [3]: 0.17 mg/dL
- TOTAL PROTEIN [3]: 5.83 G/DL
- URIC ACID [3]: 1.87 mg/dL
- ABSOLUTE BASOPHIL [4]: 0 CELLS/uL
- ABSOLUTE EOSINOPHIL [4]: 174 CELLS/uL
- ABSOLUTE LYMPHOCYTE [4]: 14815.33 CELLS/uL
- ABSOLUTE SEGMENTED NEUTROPHIL [4]: 1394.67 CELLS/uL
- BASOPHIL [4]: 0%
- EOSINOPHIL [4]: 1%
- ERYTHROCYTE COUNT [4]: 6.46 x10E6/uL
- HEMATOCRIT [4]: 39.9%
- HEMOGLOBIN [4]: 15.17 G/DL
- LEUKOCYTE COUNT [4]: 17.07 x10E3/uL
- LYMPHOCYTE [4]: 86.67%
- MEAN CORPUSCULAR HEMOGLOBIN [4]: 23.47 pg
- MEAN CORPUSCULAR HEMOGLOBIN CONCENTRATION [4]: 38.03 G/DL
- MEAN CORPUSCULAR VOLUME [4]: 61.8 fL
- MONOCYTE [4]: 4%
- NEUTROPHIL [4]: 8.33%
- NUCLEATED RED BLOOD CELLS [4]: 0.67 /100WBC
- PLATELET COUNT [4]: 1286 x10E3/uL
- ALANINE AMINOTRANSFERASE [4]: 89 u/L
- ASPARTATE AMINOTRANSFERASE [4]: 125 u/L
- BLOOD UREA NITROGEN [4]: 18.67 mg/dL
- CARBON DIOXIDE [4]: 23.67 mmol/L
- CHLORIDE [4]: 105 MEQ/L
- CHOLESTEROL [4]: 67.33 mg/dL
- CREATINE PHOSPHOKINASE [4]: 770 u/L
- CREATININE [4]: 0.14 mg/dL
- GLUCOSE [4]: 120 mg/dL
- LACTATE DEHYDROGENASE [4]: 265.67 u/L
- LIPASE [4]: 9.5 u/L
- PHOSPHORUS [4]: 12.47 mg/dL
- POTASSIUM [4]: 6.33 MEQ/L
- SODIUM [4]: 149.25 MEQ/L
- TOTAL BILIRUBIN [4]: 0.2 mg/dL
- TOTAL PROTEIN [4]: 6.23 G/DL
- URIC ACID [4]: 2.13 mg/dL
